Legend:
TrzD = biological target: T1, TrzD (Enterobacter cloacae, UniProt P0A3V4); assay: co-crystallisation with substrate, X-ray […] A; co-product CO2 seen in density; format: biochemical; conditions: 10 mM cyanuric acid in drop, BIS-TRIS pH 6.5, 20 °C; Mg2+ bound in domain 3; turned over, cyanuric acid itself not reported in the model
T1 sequence (P0A3V4 1-370): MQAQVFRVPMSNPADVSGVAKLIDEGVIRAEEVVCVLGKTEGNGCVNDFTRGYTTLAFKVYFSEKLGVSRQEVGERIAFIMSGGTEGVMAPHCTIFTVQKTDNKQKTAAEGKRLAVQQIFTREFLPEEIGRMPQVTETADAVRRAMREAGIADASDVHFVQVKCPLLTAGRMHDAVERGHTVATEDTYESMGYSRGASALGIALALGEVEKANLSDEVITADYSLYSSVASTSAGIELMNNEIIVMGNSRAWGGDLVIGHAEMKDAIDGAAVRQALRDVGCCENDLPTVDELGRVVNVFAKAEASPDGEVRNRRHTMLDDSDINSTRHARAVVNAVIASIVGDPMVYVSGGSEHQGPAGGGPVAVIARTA

[1] = biological target: the molecule itself; assay: SEC + other: dynamic light scattering; purified TrzD in solution; conditions of this experiment not told

Molecule: O=c1[nH]c(=O)[nH]c(=O)[nH]1 [cyanuric acid, 1,3,5-triazinane-2,4,6-trione]
- co-crystallisation with substrate, X-ray 2.19 A; co-product CO2 seen in density (TrzD): The protein was crystallized with its natural substrate cyanuric acid by hanging drop

B1: TrzD, a cyanuric acid hydrolase from Acidovorax citrulli (enzyme, UniProt P0A3V4 1-370, looked up)
chain: T1 sequence (P0A3V4 1-370)
notes: TrzD, cyanuric acid hydrolase of Acidovorax citrulli; full-length trzD gene in pET28b(+); 370 amino acids, ~39.5 kDa; source: E. coli BL21 (DE3), purified (Ni-NTA, Superdex-200 gel filtration); not shown: His-tag, N-terminal, kept
- stoichiometry N [1]: 4

Reference: paper PMC5366886, “Structure of the Cyanuric Acid Hydrolase TrzD Reveals Product Exit Channel” (Scientific Reports, 2017)
